pIC50: −log10 of the molar value.

One test relates to MCF-7 tumors. As to the kind of experiment: Xenograft Assay (MCF-7 Derivative), tamoxifen treatment of MCF-7 tumors. It is filed as in vivo. As to conditions: female nu/nu mice with 17-β estradiol pellets bearing MCF-7 tumors, oral gavage. As to the method:
Female nu/nu mice (with supplemental 17-P3 Estradiol pellets; 0.72 mg; 60 day slow release) bearing MCF-7 tumors (mean tumor volume 200 mm^3) were treated with Tamoxifen (citrate) by oral gavage. Tumor volume (length×width^2/2) and body weight were monitored twice weekly. […] At 120 days of treatment, tamoxifen dose was increased. Rapidly growing tumors were deemed tamoxifen resistant and selected for in vivo passage into new host animals. Tumor Fragments (˜100 mm^3/animal) from the tamoxifen resistant tumors were subcutaneously implanted into the right flank of female nu/nu mice (with 17-P3 Estradiol pellets (0.72 mg; 60 day slow release)). Passaged tumors were maintained under constant Tamoxifen selection and Tumor volume (length×width^2/2) monitored weekly. When tumor volume reached ˜150-250 mm^3, animals were randomized into treatment groups (mean tumor volume 200 mm^3) and tamoxifen treatment was terminated (except for a tamoxifen control arm). Animals were treated with Vehicle or test compound daily for 4 weeks. Tumor volume and body weight were monitored twice weekly for the duration of the study. At the conclusion of the treatment period; plasma and tumor samples were taken for pharmacokinetic and pharmacodynamic analyses, respectively.

A further test has as its system MCF-7 cells. The test is described as follows: Breast Cancer Cell Viability Assay (MCF7 Viability Assay). It is filed as cell-based. Conditions: 5 days' compound exposure, CellTiter-Glo; for pIC50: Homo sapiens, MCF7, 120 h. The procedure, abridged: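 MCF-7 cells, 320 per well in RPMI with 10% FBS and 20 mM HEPES, adhered overnight, then exposed 5 days to an eleven-point semilog dilution (final 0.3–0.000003 μM). CellTiter-Glo luminescence; % viability relative to untreated cells after subtracting cell-free background.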
Background: In ATP-based viability assays light output follows the ATP content of the culture.

The target in test [1] is T1, ER-α (Homo sapiens, UniProt P03372).
T1 construct: endogenous in cells; host or cells: MCF-7
T1 sequence (P03372 1-595): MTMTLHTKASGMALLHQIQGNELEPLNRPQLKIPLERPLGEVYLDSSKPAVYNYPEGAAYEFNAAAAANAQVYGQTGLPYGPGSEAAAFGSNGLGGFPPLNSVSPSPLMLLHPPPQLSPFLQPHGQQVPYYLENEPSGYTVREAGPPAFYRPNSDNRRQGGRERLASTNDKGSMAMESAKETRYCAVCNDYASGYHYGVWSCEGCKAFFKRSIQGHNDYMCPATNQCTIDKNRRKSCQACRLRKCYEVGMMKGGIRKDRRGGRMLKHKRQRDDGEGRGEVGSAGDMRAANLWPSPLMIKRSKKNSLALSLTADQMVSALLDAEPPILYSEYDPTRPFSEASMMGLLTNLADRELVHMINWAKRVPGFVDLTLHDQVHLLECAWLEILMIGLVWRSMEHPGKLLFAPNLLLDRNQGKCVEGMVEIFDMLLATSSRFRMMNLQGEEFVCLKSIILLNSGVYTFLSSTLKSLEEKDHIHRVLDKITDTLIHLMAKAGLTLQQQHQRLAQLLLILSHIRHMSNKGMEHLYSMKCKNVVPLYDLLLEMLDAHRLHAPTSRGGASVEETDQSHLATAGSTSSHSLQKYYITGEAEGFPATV
The test is described as follows: ER-α In Cell Western Assay (ER1D5). Conditions: MCF-7 cells, ER1D5 antibody, 4 or 24 hr post compound addition, read-out: ER In-Cell Western Assay (ER1D5); for Emax: MCF7, Max Response; for DC50: IC50. It counts as cell-based. The procedure, abridged: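 MCF-7 cells in RPMI with 10% charcoal-stripped FBS treated with 11-point semilog series (0.3–0.000003 μM final) for 4 or 24 h. Fixed cells stained with ER1D5 plus IRDye 800CW secondary and DRAQ5; ER level = 800/700 nm intensity ratio as % of untreated cells.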

The target of test [2] is T1, ER-α. As to the kind of experiment: ER-α in Cell Western Assay (SP1). It is filed as cell-based. As to conditions: MCF-7 cells, SP1 rabbit monoclonal Ab, 4 or 24 hr post compound addition, read-out: ER In-Cell Western Assay (SP1); for Emax: MCF7, Max Response; for DC50: IC50. In outline: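 MCF-7 cells in charcoal-stripped FBS medium treated with 11-point semilog dilutions (0.3–0.000003 μM final) for 4 or 24 hr, then fixed and immunostained with SP1 anti-ER antibody. ER signal (800 nm) normalized to DRAQ5 DNA signal (700 nm) and expressed as % of untreated cells.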

Regarding `CC/C(=C(\c1ccccc1)c1ccc(OCCN(C)C)cc1)c1ccccc1` [Tamoxifen, tamoxifen], in the test on MCF-7 tumors, the “anti-tumor response (tumor volume)” value was “tumor volume remained static” and the “time at which evident tumor growth was first observed” value is given as “approximately 100 days of treatment”.
Regarding `CC1=C(c2cccc(O)c2)C(c2ccc(OC[C@H](C)N3CC[C@@H](C)C3)cc2F)Oc2ccc(O)cc21` (stereo partly drawn) [Example 35, 2-(2-Fluoro-4-((S)-2-((R)-3-methylpyrrolidin-1-yl)propoxy)phenyl)-3-(3-hydroxyphenyl)-4-methyl-2H-chromen-6-ol], in the test on MCF-7 cells, the “MCF7 Viability Assay Max Response” value is “++ (++ = a single % value ≧50%)” and the pIC50 (in general, −log10 of the IC50, conventionally taken in molar units) is no less than 9.00. At ER-α [1], the Emax is no less than 65% and the DC50 was no more than 1 nM. Moreover, at ER-α [2], the Emax was no less than 85% and the DC50 is no more than 1 nM.
For the compound `CC1=C(c2cccc(O)c2)[C@@H](c2ccc(OC[C@H](C)N3CC[C@@H](C)C3)cc2)Oc2ccc(O)cc21` (single isomer, unassigned) [Example 2b], in the test on MCF-7 cells, the “MCF7 Viability Assay Max Response” value is given as “++ (++ = a single % value ≧50%)” and the pIC50 was less than 9.00. Further, at ER-α [1], the Emax is no less than 65% and the DC50 is greater than 1 nM. At ER-α [2], the Emax is no less than 85% and the DC50 was greater than 1 nM.
Consider `CC1=C(c2cccc(O)c2)C(c2ccc(OC[C@@H](C)N3CCCC3)cc2)Oc2ccc(O)cc21` (stereo partly drawn) [Example 7, 3-(3-Hydroxyphenyl)-4-methyl-2-(4-((R)-2-(pyrrolidin-1-yl)propoxy)phenyl)-2H-chromen-6-ol], for which, in the test on MCF-7 cells, the “MCF7 Viability Assay Max Response” value was “+ (+ = a single % value <50%)” and the pIC50 was no less than 9.00. Also, on ER-α [1], the Emax is less than 40% and the DC50 is greater than 1 nM. Besides, on ER-α [2], the Emax is less than 60% and the DC50 was no more than 1 nM.
As for `CC1=C(c2cccc(O)c2)C(c2ccc(OC[C@H](C)N3CCCC3)cc2)Oc2ccc(O)cc21` (stereo partly drawn) [Example 6, 3-(3-Hydroxyphenyl)-4-methyl-2-(4-((S)-2-(pyrrolidin-1-yl)propoxy)phenyl)-2H-chromen-6-ol], in the test on MCF-7 cells, the “MCF7 Viability Assay Max Response” value was “++ (++ = a single % value ≧50%)” and the pIC50 is no less than 9.00. On ER-α [1], the Emax is no less than 65% and the DC50 was no more than 1 nM. Further, at ER-α [2], the Emax is 60 to 85% and the DC50 is no more than 1 nM.
For `CC1=C(c2cccc(O)c2)C(c2ccc(OC[C@H](C)N3CC[C@@H](C)C3)cc2)Oc2ccc(O)cc21` (mixture of isomers) [Example 2, 3-(3-Hydroxyphenyl)-4-methyl-2-(4-((S)-2-((R)-3-methylpyrrolidin-1-yl)propoxy)phenyl)-2H-chromen-6-ol], in the test on MCF-7 cells, the “MCF7 Viability Assay Max Response” value is given as “++ (++ = a single % value ≧50%)” and the pIC50 is no less than 9.00. On ER-α [1], the Emax is no less than 65% and the DC50 is no more than 1 nM. In addition, at ER-α [2], the Emax was no less than 85% and the DC50 was no more than 1 nM.
In the case of `CC1=C(c2cccc(O)c2)C(c2ccc(OCCN3CCCC3)cc2)Oc2ccc(O)cc21` (centres unmarked) [Example 36, 3-(3-Hydroxyphenyl)-4-methyl-2-(4-(2-(pyrrolidin-1-yl)ethoxy)phenyl)-2H-chromen-6-ol], in the test on MCF-7 cells, the “MCF7 Viability Assay Max Response” value is “++ (++ = a single % value ≧50%)” and the pIC50 is no less than 9.00. At ER-α [1], the Emax lay in the range of 40 to 65% and the DC50 is no more than 1 nM. Moreover, on ER-α [2], the Emax is 60 to 85% and the DC50 was no more than 1 nM.
In the case of `CC1=C(c2cccc(O)c2)C(c2ccc(OCCn3ccnc3)cc2)Oc2ccc(O)cc21` (centres unmarked) [Example 16], in the test on MCF-7 cells, the “MCF7 Viability Assay Max Response” value is “+ (+ = a single % value <50%)” and the pIC50 is no less than 9.00. In addition, on ER-α [1], the Emax is less than 40% and the DC50 was greater than 1 nM. In addition, at ER-α [2], the Emax was less than 60% and the DC50 is no more than 1 nM.
Turning to `CC1=C(c2cccc(O)c2)[C@H](c2ccc(OC[C@H](C)N3CC[C@@H](C)C3)cc2)Oc2ccc(O)cc21` (single isomer, unassigned) [Example 2a], in the test with MCF-7 cells, the “MCF7 Viability Assay Max Response” value is listed as “++ (++ = a single % value ≧50%)” and the pIC50 is no less than 9.00. On ER-α [1], the Emax was no less than 65% and the DC50 is no more than 1 nM. Also, on ER-α [2], the Emax was no less than 85% and the DC50 was no more than 1 nM.

Values taken from patent US9078871B2, “Estrogen receptor modulators and uses thereof” (SERAGON PHARMACEUTICALS, INC., priority 2010, dated 2015).
